For series [1], the system named is short chain alkane monoxygenase (SCAM). In words: Activity-based labeling (ABL) of SCAM after growth on substrates. Particulars: 21198 grown on the substrate. In kind it is cell-based, Rhodococcus rhodochrous 21198.
Text: ABL testing was used to identify alcohol growth substrates that induce SCAM expression and activity and result in co-metabolic transformation of contaminants, such as 1,4-D and CAHs.
A short description of series [2]: Growth substrates: final OD and % removal of cis-DCE and TCE (Table 1). In kind it is cell-based. The settings on record: culture grown on the listed substrate.
For series [3], the system named is Burkholderia vietnamiensis G4. In words: Resting cell TCE transformation tests with G4. It is filed as cell-based. The settings on record: G4 grown on the substrate. The text has this: This example concerns COC cometabolism by Burkholderia vietnamiensis G4 (G4).
For series [4] the following is noted: cited from earlier work.
Series [5] can be described thus: Abiotic hydrolysis of suspended and encapsulated TBOS and T2BOS. In kind it is physicochemical. Particulars: for factor of decrease of hydrolysis rate in encapsulated beads compared to solution: similar masses present. As for the experimental part: This example concerns abiotic hydrolysis experiments. Batch reactors similar to the CoC transformation reactors were used to determine the rate of hydrolysis of TBOS and T2BOS free suspended in solution and encapsulated at different mass loadings in both alginate and gellan gum. These batch kinetic tests were conducted at a constant 20° C. in 155 mL glass Wheaton bottles sealed with reusable screw on caps fitted with gray butyl rubber septa. Reactors were filled with 100 mL of pH-7 carbonate buffered MSM followed by an addition of free suspended or encapsulated SRCs. The total mass of SRC added to each reactor was dependent on various parameters but ranged from 1000-1500 mg/L. All hydrolysis rates observed here were abiotic hydrolysis rates, which was ensured by the addition of 0.2% (w/v) sodium azide as a microbial poison and typically measurements of respiration data (O2/CO2).
Reactors with TBOS and T2BOS in free suspension at concentrations that replicate encapsulated SRC reactors were created to determine the effect of encapsulation on SRC hydrolysis. Substrate production rates were used as a proxy for SRC hydrolysis, due to the simplicity of substrate analysis. Direct measurements of 1- and 2-butanol in solution were made in order to determine substrate production rates and measurements are presented on a total mass produced basis. Hydrolysis of orthosilicate compounds is acid and base catalyzed and therefore, observed hydrolysis rates are on the low end of what is possible, due to suspension in pH-7 media.
The concentrations of TBOS and T2BOS in solution effects the rate of hydrolysis, and therefore, concentrations of SRCs in abiotic reactors were created to mimic the concentration of SRCs in biotic co-encapsulated reactors, ˜1000-1500 mg/L. Biotic and abiotic reactors were created in unison and monitored alongside one another, though abiotic data have been separated and are presented below. To prevent contamination from occurring over the long duration of these experiments sodium azide, 0.2% (w/v), was added to all abiotic reactors.
Due to the ease of encapsulation of SRCs within alginate, initial abiotic hydrolysis work was conducted using alginate encapsulated TBOS. TBOS was encapsulated in abiotic alginate macro-beads at a mass loading of ˜5% and 30% (w/w). These beads were then added to triplicate reactors, such that the final TBOS concentration in pH-7 carbonate buffered media was kept constant at ˜1000 mg/L; i.e., 2 grams of 5% beads and ⅓ grams of 30% beads were added to 100 mL media solution. […] To illustrate the effect of encapsulation on the hydrolysis rate of TBOS, reactors containing similar concentrations of suspended TBOS were created and monitored alongside encapsulated TBOS reactors.
Total TBOS solution concentrations of ˜1000 mg/Land bead mass loading ˜5 and 30% (w/A). Datapoints are averages between duplicate (suspended) or triplicate (encapsulated) reactors in each treatment and errors bars are 95% confidence intervals. Suspended TBOS reactors were created after encapsulated reactors and therefore, have a shorter total duration of measurements.
The abiotic hydrolysis rate of both TBOS and T2BOS encapsulated in gellan gum was also investigated. Both SRCs were encapsulated in cylindrical gellan macro-beads at mass loadings of ˜8% (w/w). For this work ATCC 21198 was also co-encapsulated within the gellan gum matrix at initial concentrations of ˜0.5 mgTss/g, and an addition of 0.2% (w/v) sodium azide was added as a cellular poison to ensure cells were not alive within the matrix. Biomass was encapsulated because it had been determined that encapsulated SRCs may hydrolyze more quickly with cells present within the encapsulation matrix. Although, the increase in hydrolysis rate was not proven to be from biotic hydrolysis of SRCs and may have been due to the presence of biomass within the matrix allowing more diffusion of water into and butanol out of beads. […]

For series [6], the system named is Rhodococcus rhodochrous 21198. In words: Growth cometabolism batch tests of 21198 on 2-butanol or orthosilicate SRCs. In kind it is cell-based. Particulars: for first order rate of 1,4-D transformation / first-order rate of 1,1,1-TCA transformation: 21198 grown in the presence of the orthosilicate; for period over which cometabolic transformation of 1,1,1-TCA and 1,4-D was maintained: single addition of the SRC. Here is the method:
Growth on 2-butanol was tracked by the production of CO2, the increase in optical density and the consumption of 2-butanol (FIG. 11).
Three additions of 1,1,1-TCA and 1,4-D were made to the two biologically active reactors at 0, 21, and 60 days. […] A third addition of 1,1,1-TCA and 1,4-D was made to the active bottles around day 60.
The same growth cometabolism test performed with T2BOS as an SRC was performed for TBOS (FIGS. 16 and 17).
Tetraisopropoxysilane (T2POS) is a 2-propanol releasing orthosilicate, similar to TBOS and T2BOS. […] An identical test was performed to those presented for TBOS and T2BOS. The same growth indicators, CO2, O2, and 2-propanol, were tracked throughout the experiment (FIG. 18).

Series [7] in a line: Alcohol release from orthosilicates in poisoned control batch reactors. In kind it is physicochemical. The text has this: A slow but gradual rate of O2 consumption was observed, when headspace O2 concentrations are compared to the poisoned controls (FIG. 13). […] T2BOS is not rapidly utilized by 21198 like observed with sBA (FIG. 15), and 2-butanol is released by abiotic hydrolysis. The slow rate of hydrolysis is indicated by the measured 2-butanol concentrations in the poisoned reactor. Over the period of 60 to 125 days approximately 50 μmol of 2-butanol was formed.
Tetraisopropoxysilane (T2POS) is a 2-propanol releasing orthosilicate, similar to TBOS and T2BOS. […] The smaller 2-propanol therefore would be released from T2POS more rapidly than 2-butanol from T2BOS [6], but slower than TBOS. An identical test was performed to those presented for TBOS and T2BOS. The same growth indicators, CO2, O2, and 2-propanol, were tracked throughout the experiment (FIG. 18).

For series [8] the following is noted: cited from earlier work; for Henry's Constant, Hcc: dimensionless.
Series [9] has as its system Rhodococcus rhodochrous 21198. Kind of series: Resting cell co-metabolic transformation tests with 21198. It is filed as cell-based. Particulars: 21198 grown on isobutane, previous batch experiments.
The mark [10] stands for this setting: Table 15, summary of abiotic hydrolysis rates.
The mark [11] stands for this setting: abiotic hydrolysis, aqueous alcohol.

The text below walks through data of US11845927B2, “Bioremediation using co-metabolism substrates” (Oregon State University, priority 2018, dated 2023).

In brackets after ≈: the same amount, converted by molar mass. Where two headings read alike, the source gives them in different places.

With 1-butanol, in series [1], the “SCAM activity / protein banding pattern” value is recorded as “not induced”. Also, in series [2], the “% REMOVAL Cis-DCE” value is 98%, the “% REMOVAL TCE” value is listed as 16% and the “FINAL OD(550)” value worked out at 0.24.
As to `CCCC(=O)O` [Butyrate], the “% REMOVAL TCE” value in [2] turned out to be 9%.
On to `CC(=O)OCc1ccccc1` [benzyl acetate], for which the “TCE transformation by resting cells” value in series [3] is listed as “slower transformation rates”.
As to `CC(C)O` [2-propanol], the “SCAM activity / protein banding pattern” value in [1] is recorded as “faint banding pattern”.
As for `CCC(C)O[Si](OC(C)CC)(OC(C)CC)OC(C)CC` (centres unmarked) [T2BOS, tetra-sec-butyl orthosilicate], the estimated solubility in series [4] is 6.8 µg/mL; in [4] (listed as tetra-sec-butyl orthosilicate) it was 3.8 µg/mL. In addition, in series [5] (Table 13), the “Estimated Exhaustion of T2BOS” value was 12.9 years. In addition, the “Butanol Production Rate” value in [5] (Table 13, SRC ~1500 mg/L, pH-7) came out at 0.40 µmol/day; in series [5] (Table 14, SRC 1500 mg/l), 0.40 µmol/day; in [5] (setting [10]) it was 0.40 µmol/day. Also, the “Estimated Exhaustion of TBOS” value in [5] (Table 14) is 12.9 years. For the same molecule, the “Estimated Exhaustion of SRS” value in series [5] (Table 15) is on record as 12.9 years. Further, the “factor of decrease of hydrolysis rate in encapsulated beads compared to solution” value in [5] came out at 10. In addition, the “first order rate of 1,4-D transformation” value in series [6] is 0.04 day⁻¹. In addition, the “first-order rate of 1,1,1-TCA transformation” value (“first-order rate” for short) in series [6] was determined as 0.037 day⁻¹. Moreover, the “period over which cometabolic transformation of 1,1,1-TCA and 1,4-D was maintained” value in series [6] is 125 days. Also, in [7] (setting [11]), the “2-butanol production rate in poisoned control” value amounted to 0.76 µmol/day. For the same molecule, in [7] (over the period of 60 to 125 days, T2BOS 1500 mg/L), the “2-butanol formed in poisoned reactor” value is “approximately 50 μmol”.
`C1COCCO1` [1,4-Dioxane]: the “Henry's Constant, Hcc” value in series [8] was 0.000198.
Take 1-Propanol: the “SCAM activity / protein banding pattern” value in series [1] is recorded as “not induced”. For the same molecule, in [2], the “% REMOVAL Cis-DCE” value is 44% and the “FINAL OD(550)” value amounted to 0.24.
`OCc1ccccc1` [Benzyl alcohol]: the “TCE transformation by resting cells” value in series [3] is reported as “rapidly cometabolized”. The “% REMOVAL TCE” value in series [2] is 100%.
On to `Oc1ccccc1` [Phenol], for which the “TCE transformation by resting cells” value in [3] is “slower transformation rates”. In addition, the “% REMOVAL TCE” value in series [2] came to 100%.
In the case of `CC(=O)O` [Acetate], in series [3], the “TCE transformation by resting cells” value was “Slow rates”. For the same molecule, in series [2], the “% REMOVAL Cis-DCE” value was 73% and the “FINAL OD(550)” value was 0.33.
As to `CCO` [Ethanol], the “SCAM activity / protein banding pattern” value in series [1] was “not induced”.
For the molecule `C=CCCO` [3-buten-1-ol], in series [2], the “% REMOVAL Cis-DCE” value stood at 89%, the “% REMOVAL TCE” value amounted to 21% and the “FINAL OD(550)” value is given as “.022”.
Consider `CCCCO[Si](OCCCC)(OCCCC)OCCCC` [TBOS, tetrabutyl orthosilicate], for which, in [5] (Table 12), the “Estimated Exhaustion of TBOS” value was 0.6 years. The “Butanol Production Rate” value in series [5] (Table 12, 1-butanol, TBOS ~1000 mg/L, pH-7, 20° C.) is 5.9 µmol/day. The “Estimated Exhaustion of SRS” value in series [5] (Table 15) is reported as 0.58 years. Besides, the “Butanol Production Rate” value in [5] (setting [10]) turned out to be 5.91 µmol/day. The “factor of decrease of hydrolysis rate in encapsulated beads compared to solution” value in series [5] was determined as 10. Moreover, in [6], the “first order rate of 1,4-D transformation” value was found to be 0.76 day⁻¹; the “first-order rate” value worked out at 0.47 day⁻¹; the “period over which cometabolic transformation of 1,1,1-TCA and 1,4-D was maintained” value is 45 days. Further, the “alcohol production rate in poisoned control” value in series [7] (setting [11]) worked out at 11 µmol/day.
`CC(C)C` [Isobutane]: in series [9], the VC transformation rate entry is given as “about 14 μmol/mg TSS/day”. In addition, the “SCAM activity / protein banding pattern” value in [1] is recorded as “strongest banding pattern”. In addition, in [8], the “Solubility, Sw” value is recorded as 48.9 mg/L (≈ 841 µM) and the “Henry's Constant, Hcc” value was 49.2.
For the molecule `CCC(C)OC(C)=O` (centres unmarked) [sec-butyl acetate], the estimated solubility in [4] was 3520 µg/mL.
Consider 2-butanol, for which the “SCAM activity / protein banding pattern” value in series [1] is reported as “observed”.
As for `CC=CCO` [2-buten-1-ol], in [2], the “% REMOVAL Cis-DCE” value is reported as 67%, the “% REMOVAL TCE” value is on record as 20% and the “FINAL OD(550)” value is on record as “.023”.
For `C#C` [acetylene, reference compound], in [6] (acetylene present during growth of 21198 on 2-butanol), the “effect on transformation of 1,1,1-TCA and 1,4-D” value is on record as “blocked”.
`C=CC(C)O` (centres unmarked) [3-buten-2-ol]: the “FINAL OD(550)” value in [2] is recorded as 0.03.
For the molecule `O=C(O)c1ccccc1` [Benzoate], in series [2], the “% REMOVAL Cis-DCE” value is reported as 84%, the “% REMOVAL TCE” value is reported as 6% and the “FINAL OD(550)” value turned out to be 0.24.
In the case of `CCCC(=O)OCc1ccccc1` [benzyl butyrate], the “TCE transformation by resting cells” value in series [3] was “rapidly cometabolized”.
Take `CC(Cl)(Cl)Cl` [1,1,1-Trichloroethane]: in [8], the “Solubility, Sw” value is given as 1,290 mg/L and the “Henry's Constant, Hcc” value is listed as 0.548.
In the case of `CC(C)O[Si](OC(C)C)(OC(C)C)OC(C)C` [T2POS, tetraisopropoxysilane], in series [6], the “first order rate of 1,4-D transformation” value is 0.24 day⁻¹ and the “first-order rate” value amounted to 0.14 day⁻¹. The “alcohol production rate in poisoned control” value in series [7] (setting [11]) turned out to be 5.1 µmol/day.
